Columns and labels:
[1] = molecular target: T1, SARM1 protein in iSARM1 (HEK293) cells (Homo sapiens, UniProt Q6SZW1); assay: Inhibitory activity in inducible SARM1 overexpressing cell line, intracellular cADPR level; assay type: cell-based; details: activator CZ-48 100 μM, cADPR content
T1 construct: The full-length SARM1 was synthesized into the pUC57 plasmid by WZ Biosciences Inc., and PCR was performed using pUC57-SARM1 as a DNA template
T1 sequence (Q6SZW1 28-724): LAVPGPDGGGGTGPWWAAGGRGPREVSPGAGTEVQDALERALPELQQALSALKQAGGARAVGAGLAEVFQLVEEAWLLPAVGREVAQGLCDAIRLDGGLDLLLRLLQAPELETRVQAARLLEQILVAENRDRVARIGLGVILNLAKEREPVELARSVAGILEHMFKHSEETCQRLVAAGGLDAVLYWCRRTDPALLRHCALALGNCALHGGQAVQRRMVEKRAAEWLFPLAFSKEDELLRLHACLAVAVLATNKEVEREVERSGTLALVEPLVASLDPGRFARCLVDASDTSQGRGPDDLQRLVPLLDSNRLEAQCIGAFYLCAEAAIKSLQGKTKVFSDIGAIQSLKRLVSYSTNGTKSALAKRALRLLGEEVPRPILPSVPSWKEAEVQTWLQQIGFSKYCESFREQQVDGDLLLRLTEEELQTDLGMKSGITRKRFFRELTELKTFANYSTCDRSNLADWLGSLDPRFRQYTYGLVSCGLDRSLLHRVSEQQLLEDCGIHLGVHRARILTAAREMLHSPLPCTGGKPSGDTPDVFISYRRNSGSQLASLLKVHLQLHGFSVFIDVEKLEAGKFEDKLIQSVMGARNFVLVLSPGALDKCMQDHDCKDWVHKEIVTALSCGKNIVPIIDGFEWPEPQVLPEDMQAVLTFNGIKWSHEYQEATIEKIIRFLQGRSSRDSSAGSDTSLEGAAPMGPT
Method: In this example, the gene sequence of SARM1 was amplified using PCR, and constructed into pInducer20-neo plasmid. pInducer20-SARM1 virus was packaged in a liposome and infected HEK293 to obtain an inducible SARM1-overexpressing cell line, which was labeled as iSARM1 (HEK293). The specific preparation was as follows:
First, a 96-well culture plate was treated with 0.05 mg/ml polylysine for 5 minutes and washed once with PBS. 3×10^4 iSARM1 (HEK293) cells were plated into the 96-well plate and cultured overnight in a 37° C. and 5% incubator. The next day, the cells were added with an inhibitor with a final concentration of 50 μM, incubated in the incubator for 1.5 hours, added with activator CZ-48 with a final concentration of 100 μM, and incubated for 16 hours. Meanwhile, the cells without adding CZ-48 or without adding drug were set as control group. Finally, the intracellular cADPR level was detected to represent the activity of SARM1, and the inhibition rate of SARM1 in cells by 50 μM inhibitor was calculated.
The cADPR measurement was performed as follows. First, the cells were washed once with PBS, and added with 150 μl of pre-cooled 0.6M perchloric acid (PCA) to quickly lyse the cells and precipitate the protein. The PCA supernatant was transferred to a 1.5 ml centrifuge tube. The protein in the culture medium was dissolved again with 100 μl of 1M NaOH. The supernatant was added with 0.5 ml of organic reagent mixture (trioctylamine:chloroform=1:3) to extract PCA from water. After sufficient shaking, the mixture was centrifuged at 12,000 rpm for 10 minutes. The solution was divided into 3 layers: the upper aqueous phase, containing the small molecules of interest; the lower organic phase, in which PCA was dissolved; and a thin protein layer between the upper and lower layers. The upper layer was transferred to a new centrifuge tube, added with 1M Tris-Mg at a ratio of 1:100 (1M Tris (pH 8.0): 1M MgCl2=9:1), added with NADase at a ratio of 1:250, and treated at 37° C. overnight to remove NAD^+ from the mixed solution. After the treatment was completed, the mixed solution was filtered using Millipore's 10 K 96-well filter plate to remove NADase.
The cADPR content in the solution was determined through Cycling analysis method. The specific steps were as follows: 20 μl of the sample to be tested or the cADPR standard was taken and added to a 96-well opaque white plate. Preparation of reaction solution: 9.6 ml of PBS (pH 7.4), 200 μl of ethanol, 150 μl of 1 mg/ml AD, 10 μl of 10 mM FMN, 5 μl of 18 mg/ml Diaphorase, 10 μl of 10 mM Resazurin, and 100 μl of 1M Nam. Half of the reaction solution was divided and added with 0.2 μg/ml cyclase. The reaction solution without adding cyclase was used as control experiment. Each sample was divided into two groups, 3 replicates in each group. The reaction solutions containing or not containing cyclase were added to each group to perform the reaction. The reaction kinetic curve within 30 minutes was recorded (Ex:Em=544/599). The average slope of the reaction was calculated. Conversion was performed according to cADPR standard to obtain the accurate cADPR content. A curve of intracellular cADPR content vs corresponding inhibitor concentration was plotted. The half inhibitory concentration of the inhibitor was calculated.

dN-SARM1 protein = molecular target: T2, dN-SARM1 protein (Homo sapiens, UniProt Q6SZW1); assay: In vitro biochemical assay for inhibiting SARM1 enzymatic activity (IC50), PC6 fluorescence method; details: 50 μM NAD, 50 μM PC6, 50 μM NMN activator
T2 construct: the N-terminal mitochondrial localization signal peptide of SARM1 was removed
T2 sequence (Q6SZW1 28-724): T1 sequence (Q6SZW1 28-724)
Outline: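 Activity read as the rate of PC6 fluorescence change (390 nm excitation, 520 nm emission) over a 30 min room-temperature reaction containing final 50 μM each of NAD, PC6 and NMN activator. Enzyme, 0.05 μg/ml dN-SARM1 in 50 mM Tris-HCl pH 7.5, first incubated 10 min with compound diluted serially from 200 μM; IC50 calculated.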

Row | Compound | EC50 [1] [µM] | IC50 (dN-SARM1 protein) [µM]
1 | CC(C)(C)OC(=O)N(C/C=C/c1cccc(NC(=O)C2CCOCC2)c1)c1ccc2ncc(-c3ccccc3)n2c1 [Compound 221] | < 1 | 1 to 10
2 | O=C1CCCN1c1ccc2ncc(-c3cccc4[nH]ccc34)n2c1 [Compound 205] | < 1 | 1 to 10
3 | Cc1ncsc1-c1ccc(CNC(=O)[C@@H]2C[C@@H](O)CN2C(=O)[C@@H](NC(=O)COCCOCCOCC(=O)N(C)c2ccc3ncc(-c4ccccc4Cl)n3c2)C(C)(C)C)cc1 [Compound 118, (2S,4R)-1-((S)-15-(tert-butyl)-2-(3-(2-chlorophenyl)imidazo[1,2-a]pyridin-6-yl)-3,13-dioxo-5,8,11-trioxa-2,14-diazahexadecane-16-acyl)-4-hydroxy-N-(4-(4-methylthiazol-5-yl)benzyl) pyrrolidin-2-carboxamide] | < 1 | 1 to 10
4 | CNc1ccc2ncc(-c3cccc(NC(=O)C4CCCO4)c3)n2c1 (stereo not shown) [Compound 236] | 1 to 10 | < 1
5 | CNc1ccc2ncc(-c3ccc(S(N)(=O)=O)cc3)n2c1 [Compound 63, 4-(6-(methylamino)imidazo[1,2-a]pyridin-3-yl)benzenesulfonamide] | 1 to 10 | 1 to 10
6 | CN(C(=O)OC(C)(C)C)c1ccc2ncc(-c3cccc4[nH]ccc34)n2c1 [Compound 275] | 1 to 10 | 1 to 10
7 | COCCOCC(=O)Nc1cccc(-c2cnc3ccc(N(C)C(=O)OC(C)(C)C)cn23)c1 [Compound 47, tert-butyl (3-(3-(2-(2-methoxyethoxy)acetamido)phenyl)imidazo[1,2-a]pyridin-6-yl)(methyl) carbamate] | < 1 | < 1
8 | O=C(Nc1cccc(-c2cnc3ccc(N4CCOCC4)cn23)c1)[C@H]1C[C@H](N2CCCCC2)C1 [Compound 227] | < 1 | 1 to 10
9 | CN(C(=O)OC(C)(C)C)c1ccc2ncc(-c3cccc4c3C(=O)NC4)n2c1 [Compound 164] | 1 to 10 | < 1
10 | CNc1ccc2ncc(-c3nn4ccnc4s3)n2c1 [Compound 185] | 1 to 10 | 1 to 10
11 | CNc1ccc2ncc(-c3cccc(C(=O)OC)c3)n2c1 [Compound 273] | 1 to 10 | 1 to 10
12 | CN(C(=O)OC(C)(C)C)c1ccc2ncc(-c3ccccc3)n2c1 [Compound 8] | 1 to 10 | 1 to 10
13 | CN(C(=O)OC(C)(C)C)c1ccc2ncc(-c3cccc4ncsc34)n2c1 [Compound 167] | < 1 | < 1
14 | NS(=O)(=O)c1cccc(-c2cnc3ccccn23)c1 [Compound 9] | 1 to 10 | 1 to 10
15 | CN(C(=O)OC(C)(C)C)c1ccc2ncc(-c3cccc(NC(=O)COCc4ccccc4)c3)n2c1 [Compound 248] | < 1 | 1 to 10
16 | CN(C(=O)OC(C)(C)C)c1ccc2ncc(-c3cccnc3)n2c1 [Compound 15] | 1 to 10 | 1 to 10
17 | CN(C(=O)OC(C)(C)C)c1ccc2ncc(-c3ccccc3Cl)n2c1 [Compound 11] | < 1 | 1 to 10
18 | CN(C(=O)OC(C)(C)C)c1ccc2ncc(C3CCCCC3)n2c1 [Compound 84, tert-butyl (3-cyclohexylimidazo[1,2-a]pyridin-6-yl)(methyl)carbamate] | < 1 | 1 to 10

Row | Compound | EC50 [1] [µM] | IC50 (dN-SARM1 protein) [µM]
19 | CN(C(=O)OC(C)(C)C)c1ccc2ncc(-c3cccc(C(N)=O)c3)n2c1 [Compound 7] | 1 to 10 | 1 to 10
20 | C=CCN(C(=O)OC(C)(C)C)c1ccc2ncc(-c3cccc(NC(=O)C4CCOCC4)c3)n2c1 [Compound 213, tert-butyl allyl(3-(3-(tetrahydro-2H-pyran-4-carboxamido)phenyl)imidazo[1,2-a]pyridin-6-yl)carbamate] | < 1 | 1 to 10
21 | CC(C)(C)OC(=O)N(C/C=C/c1cccc(N)c1)c1ccc2ncc(-c3cccc(NC(=O)C4CCOCC4)c3)n2c1 [Compound 219] | 1 to 10 | 1 to 10
22 | CN(C(=O)OC(C)(C)C)c1ccc2ncc(-c3cccc(N(C)C(=O)C4CCOCC4)c3)n2c1 [Compound 158, tert-butyl methyl (3-(3-(N-methyltetrahydro-2H-pyran-4-carboxamido)phenyl)imidazo[1,2-a]pyridin-6-yl)carbamate] | < 1 | 1 to 10
23 | CNc1ccc2ncc(-c3cccc(CN)c3)n2c1 [Compound 274] | 1 to 10 | 1 to 10
24 | CNc1ccc2ncc(-c3cccc(CNC(=O)c4ccccc4)c3)n2c1 [Compound 253] | 1 to 10 | 1 to 10
25 | CNc1ccc2ncc(-c3cc4cc[nH]c4cn3)n2c1 [Compound 162, N-methyl-3-(1H-pyrrolo[2,3-c]pyridin-5-yl)imidazo[1,2-a]pyridin-6-amine] | < 1 | < 1
26 | CN(C(=O)OC(C)(C)C)c1ccc2ncc(-c3cccc(C(=O)NC[C@@H]4CCO4)c3)n2c1 [Compound 246] | 1 to 10 | 1 to 10
27 | CN(C(=O)OC(C)(C)C)c1ccc2ncc(-c3cccc4ncccc34)n2c1 [Compound 262] | < 1 | < 1
28 | CNc1ccc2ncc(-c3cccc(NC(=O)COCCOCc4ccccc4)c3)n2c1 [Compound 241] | < 1 | < 1
29 | c1ccc(-c2cnc3ccc(NC4CCOC4)cn23)cc1 (stereo not shown) [Compound 87, 3-phenyl-N-(tetrahydrofuran-3-yl)imidazo[1,2-a]pyridin-6-amine] | 1 to 10 | < 1
30 | CN(C(=O)OC(C)(C)C)c1ccc2ncc(-c3cccc(NC(=O)c4ccccc4)c3)n2c1 [Compound 249] | < 1 | 1 to 10
31 | CN(C(=O)OC(C)(C)C)c1ccc2ncc(-c3cccc(OCCOCc4ccccc4)c3)n2c1 [Compound 156] | 1 to 10 | 1 to 10
32 | CN(C(=O)OC(C)(C)C)c1ccc2ncc(-c3ccn4ccnc4c3)n2c1 [Compound 169] | 1 to 10 | < 1
33 | C=CCN(C(=O)OC(C)(C)C)c1ccc2ncc(-c3cccc(N)c3)n2c1 [Compound 211, tert-butyl allyl(3-(3-aminophenyl)imidazo[1,2-a]pyridin-6-yl)carbamate] | < 1 | 1 to 10
34 | CNc1ccc2ncc(-c3nccc4[nH]ccc34)n2c1 [Compound 183] | 1 to 10 | 1 to 10
35 | CNc1ccc2ncc(-c3cccc4[nH]ccc34)n2c1 [Compound 255] | 1 to 10 | < 1

— patent publication US20240368168A1, “SARM1 ENZYME ACTIVITY INHIBITOR AND APPLICATION THEREOF” (ARTIVILA BIOPHARMA, priority 2021, published 2024)
